Results on ten molecules are retold here after ChEMBL document CHEMBL1137368, “Antitumor activity of substituted E-3-(3,4,5-trimethoxybenzylidene)-1,3-dihydroindol-2-ones1” (2006).

Broadly, the GI50 is the concentration that inhibits growth by half. Read a low GI50 as more potent growth inhibition. One may read the LC50 as the concentration lethal to half of the exposed cells or organisms.

The structures appear in SMILES notation. Structures can show the parent of a compound that is named as a salt.

Holding throughout (format): functional
Common to all, as to conditions: Homo sapiens; for TGI: read-out: pTGI (converted)

Assay [1] concerns Panel leukemia (Carcinoma cell lines). Nature of the assay: Anticancer activity against leukemia cancer cell lines of NCI60 panel.
The subject of another assay is NSCLC. Nature of the assay: Anticancer activity against NSCLC cancer cell lines of NCI60 panel.
The test system of assay [2] is Panel colon (Carcinoma cell lines). Nature of the assay: Anticancer activity against colon cancer cell lines of NCI60 panel.
Assay [3] relates to Panel CNS (Carcinoma cell lines). In words: Anticancer activity against CNS cancer cell lines of NCI60 panel.
Assay [4] deals with Panel melanoma (Carcinoma cell lines). Nature of the assay: Anticancer activity against melanoma cancer cell lines of NCI60 panel.
The test system of assay [5] is Panel ovarian (Carcinoma cell lines). In words: Anticancer activity against ovarian cancer cell lines of NCI60 panel.
Assay [6] deals with Panel renal (Carcinoma cell lines). Nature of the assay: Anticancer activity against renal cancer cell lines of NCI60 panel.
The subject of assay [7] is Panel breast (Carcinoma cell lines). Nature of the assay: Anticancer activity against breast cancer cell lines of NCI60 panel.
In assay [8] the test system is Panel prostate (Carcinoma cell lines). Nature of the assay: Anticancer activity against prostate cancer cell lines of NCI60 panel.

On to `COc1cc2c(cc1C)NC(=O)/C2=C/c1cc(OC)c(OC)c(OC)c1`, for which the 50% growth inhibitory concentration (GI50) in [1] was 18.2 µM; with NSCLC, 57.5 µM; in assay [2] it was 85.1 µM; in [3], 41.7 µM; in [4] it was 74.1 µM; in assay [5], 75.9 µM. The GI50 in assay [6] is 55 µM. The TGI in [1] was 52.5 µM; with NSCLC, 81.3 µM; in [3] it was 83.2 µM; in [6], 89.1 µM; in assay [7], 93.3 µM.

With `COc1cc(/C=C2/C(=O)N(c3ccccc3)c3ccccc32)cc(OC)c1OC`, the GI50 in assay [1] is 2.29 µM; in the assay with NSCLC, 9.33 µM; in [2] it was 5.75 µM; in assay [3] it was 6.03 µM; in assay [4], 7.41 µM; in assay [5] it was 10 µM. For the same molecule, the GI50 is 5.75 µM in assay [6], 3.16 µM in assay [8] and 8.32 µM in assay [7]. Also, the TGI in assay [1] is 14.1 µM; with NSCLC it was 36.3 µM; in assay [2], 26.9 µM; in [3] it was 30.9 µM; in [4], 20.9 µM; in assay [5], 32.4 µM. In addition, the TGI in assay [6] was 23.4 µM; in [8] it was 16.2 µM; in assay [7] it was 53.7 µM. For the same molecule, the median lethal concentration (LC50) with NSCLC is 83.2 µM; in assay [2], 67.6 µM; in assay [3], 72.4 µM; in assay [4], 52.5 µM; in assay [5], 83.2 µM; in [6], 64.6 µM.

For `COc1cc(/C=C2/C(=O)Nc3cccc(Cl)c32)cc(OC)c1OC`, the concentration for 50% growth inhibition (GI50) is 2.4 µM in assay [1]; 75.9 µM with NSCLC; 61.7 µM in [3]; 89.1 µM in assay [5]; 61.7 µM in assay [6]; 85.1 µM in assay [7]. Moreover, the TGI in assay [1] is 16.2 µM; in [3], 97.7 µM.

As to `COc1cc(/C=C2/C(=O)Nc3ccccc32)cc(OC)c1OC`, the GI50 in [1] was 7.59 µM; with NSCLC, 18.6 µM; in [2], 15.1 µM; in assay [3], 12.3 µM; in [4] it was 20 µM; in assay [5], 24.5 µM. Also, the GI50 in [6] was 18.6 µM; in assay [8], 18.6 µM; in assay [7], 19.1 µM. Also, the TGI is 87.1 µM in [1]; 85.1 µM with NSCLC; 75.9 µM in assay [2]; 85.1 µM in assay [3]; 81.3 µM in assay [4]; 95.5 µM in assay [5]. For the same molecule, the TGI in [6] was 75.9 µM; in assay [7], 77.6 µM.

Turning to `COc1cc(/C=C2/C(=O)Nc3ccc(O)cc32)cc(OC)c1OC`, the GI50 is 3.02 µM in assay [1]; 11.7 µM in the assay on NSCLC; 12.3 µM in [2]; 8.71 µM in assay [3]; 10 µM in [4]; 14.1 µM in [5]. Besides, the 50% growth inhibitory concentration (GI50) is 14.1 µM in [6], 2.4 µM in [8] and 9.12 µM in [7]. Also, the TGI in [1] was 30.9 µM; with NSCLC, 40.7 µM; in assay [2], 47.9 µM; in assay [3], 41.7 µM; in assay [4], 27.5 µM; in [5], 47.9 µM. Moreover, the TGI is 44.7 µM in assay [6], 19.1 µM in assay [8] and 52.5 µM in assay [7]. For the same molecule, the LC50 is 89.1 µM in the assay with NSCLC; 83.2 µM in assay [2]; 91.2 µM in assay [3]; 69.2 µM in [4]; 93.3 µM in assay [5]; 83.2 µM in [6]. In [7], this molecule showed an LC50 of 97.7 µM.

Turning to `COc1cc(/C=C2/C(=O)N(C)c3ccccc32)cc(OC)c1OC`, the GI50 in assay [1] was 7.24 µM; in the assay with NSCLC, 18.2 µM; in assay [2], 13.5 µM; in assay [3], 9.55 µM; in [4] it was 17.4 µM; in [5] it was 18.2 µM. For the same molecule, the GI50 in [6] was 12.3 µM; in assay [8], 10.5 µM; in assay [7], 19.5 µM. In addition, the TGI in [1] was 70.8 µM; in the assay with NSCLC, 67.6 µM; in assay [2], 61.7 µM; in [3], 81.3 µM; in assay [4], 43.7 µM; in assay [5], 81.3 µM. The values for the TGI in assay [6] and in assay [7] were 61.7 µM and 77.6 µM, respectively.

For the molecule `COc1cc(/C=C2/C(=O)Nc3ccc(F)cc32)cc(OC)c1OC`, the 50% growth inhibitory concentration (GI50) was 14.1 µM in assay [1]; 26.9 µM with NSCLC; 30.9 µM in assay [2]; 33.1 µM in [3]; 37.2 µM in assay [4]; 44.7 µM in assay [5]. The results for the GI50 in [6], in [8] and in [7] were 34.7 µM, 27.5 µM and 9.55 µM, respectively. The figures for the TGI (with NSCLC; in [3]; in [7]) were 91.2 µM, 85.1 µM and 87.1 µM, respectively.

Regarding `COc1cc(/C=C2/C(=O)Nc3ccc(Cl)cc32)cc(OC)c1OC`, the GI50 was 8.71 µM in assay [1]; 20.9 µM with NSCLC; 8.32 µM in assay [2]; 17.4 µM in assay [3]; 28.2 µM in assay [4]; 17 µM in assay [5]. Moreover, the GI50 in assay [6] is 15.8 µM; in assay [8] it was 2.95 µM; in assay [7] it was 15.8 µM. The TGI in the assay with NSCLC is 74.1 µM; in [2], 93.3 µM; in assay [3], 56.2 µM; in assay [5], 77.6 µM; in assay [6], 64.6 µM; in assay [7] it was 56.2 µM.

Regarding `COc1ccc2c(c1)/C(=C\c1cc(OC)c(OC)c(OC)c1)C(=O)N2`, the GI50 in assay [1] is 0.0871 µM; in the assay with NSCLC, 1.12 µM; in assay [2], 0.182 µM; in assay [3] it was 0.417 µM; in assay [4], 0.891 µM; in [5], 0.676 µM. The 50% growth inhibitory concentration (GI50) in assay [6] is 0.575 µM; in assay [8] it was 0.692 µM; in assay [7] it was 0.398 µM. Also, the TGI is 11.2 µM in assay [1]; 58.9 µM with NSCLC; 32.4 µM in assay [2]; 12.6 µM in assay [3]; 41.7 µM in [4]; 15.5 µM in assay [5]. The TGI is 19.1 µM in assay [6] and 14.8 µM in [7]. For the same molecule, the LC50 was 83.2 µM in assay [2]; 95.5 µM in [3]; 95.5 µM in assay [4]; 41.7 µM in [5]; 91.2 µM in assay [6]; 50.1 µM in assay [7].

Regarding `CC[C@]1(O)C[C@H]2CN(CCc3c([nH]c4ccccc34)[C@@](C(=O)OC)(c3cc4c(cc3OC)N(C=O)[C@H]3[C@@](O)(C(=O)OC)[C@H](OC(C)=O)[C@]5(CC)C=CCN6CC[C@]43[C@@H]65)C2)C1` [VINCRISTINE SULFATE], the concentration for 50% growth inhibition (GI50) is 0.1 µM in assay [1]; 0.251 µM in the assay on NSCLC; 0.1 µM in assay [2]; 0.126 µM in assay [3]; 0.158 µM in assay [4]; 0.316 µM in assay [5]. In addition, the GI50 in assay [6] is 0.316 µM; in assay [8], 0.126 µM; in [7], 0.316 µM. Further, the TGI is 15.8 µM in assay [1]; 15.8 µM with NSCLC; 3.98 µM in [2]; 6.31 µM in [3]; 7.94 µM in [4]; 20 µM in [5]. The TGI is 20 µM in assay [6], 6.31 µM in [8] and 7.94 µM in assay [7].
